Assay results taken from patent US12577250B2, “1,2,4-triazolone derivative as DHODH inhibitor, and preparation method therefor and use thereof” (WIGEN BIOMEDICINE TECHNOLOGY (SHANGHAI) CO., LTD., priority 2021, dated 2026).
pIC50: −log10 of the molar value. Read-outs that look alike come from different tables or passages of the source.

Tests used:
[1] = molecular target: DHODH (Homo sapiens, UniProt Q02127); experiment: Assay against enzyme activity of DHODH (DCIP absorption at 600 nm); assay type: biochemical
Chain of DHODH (Q02127 whole entry): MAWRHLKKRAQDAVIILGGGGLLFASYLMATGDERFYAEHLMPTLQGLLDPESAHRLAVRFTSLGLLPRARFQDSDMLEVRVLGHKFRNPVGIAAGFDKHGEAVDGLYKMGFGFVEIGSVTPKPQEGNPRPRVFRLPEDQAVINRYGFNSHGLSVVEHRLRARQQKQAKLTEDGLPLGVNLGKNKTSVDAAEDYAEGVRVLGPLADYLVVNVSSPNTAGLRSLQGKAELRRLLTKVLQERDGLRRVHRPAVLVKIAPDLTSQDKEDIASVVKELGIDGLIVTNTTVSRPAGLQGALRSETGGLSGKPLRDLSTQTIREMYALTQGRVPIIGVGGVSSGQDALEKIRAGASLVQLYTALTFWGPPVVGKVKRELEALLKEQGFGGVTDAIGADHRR
Procedure: The enzyme activity of DHODH was assayed through a cascade reaction to determine its ability to catalyze the oxidation of a natural substrate DHO (dihydroorotic acid) to orotic acid while reducing coenzyme Q. The enzyme activity of DHODH was indirectly detected by assaying the ability of the coenzyme Q to reduce a chromogenic substrate DCIP. After the compound and an enzyme reaction mixture were incubated for 5 min, a reaction substrate DHO was added to start the reaction, and the enzyme activity was assayed by assaying the absorption at 600 nm to detect the DCIP exhaustion in a timed manner.

[2] = system: MV-4-11 cells; experiment: Anti-proliferative activity on MV-4-11 cells (CellTiter-Lumi, 72 h); assay type: cell-based; details: read-out: Cell anti-proliferative activity IC50 MV-4-11
Procedure: (§1) MV-4-11 cells were seeded into a 384-well plate (Fisher 142762) at 3000 cells per well. The next day, serially diluted compounds were added, and 72 h after the addition, CellTiter-Lumi (Beyotime C0068XL) was added to measure the ATP content in the cells. The growth of the cells was evaluated, and IC50 of the compounds against cell growth was calculated.

[3] = system: THP-1 cells; experiment: Anti-proliferative activity on THP-1 cells (CellTiter-Lumi, 72 h); assay type: cell-based; details: read-out: Cell anti-proliferative activity IC50 THP-1
Procedure: as §1, with “THP-1” for “MV-4-11”

[4] = Pharmacokinetic evaluation in mice; assay type: in vivo, male ICR mice
Procedure: The compounds were administered by intravenous injection at a dose of 2 mg/kg and oral gavage at a dose of 10 mg/kg (0.5% CMC-Na suspension). 15 male ICR mice were selected, and each mouse was subjected to blood collection at 3 discrete time points, with 3 mice per time point. The time points of sampling were as follows: before administration, and 5 min, 15 min, 30 min, 1 h, 3 h, 5 h, 8 h, 12 h and 24 h after administration. 80 μL of blood was collected from the orbits or hearts of the mice at each time point after administration. All whole blood samples were collected in tubes containing EDTAK2 and centrifuged (1500-1600 rmp/min) at 4° C. for 10 min to isolate plasma, which was then stored in a refrigerator at −90° C. to −60° C. for sample analysis. The compound concentration in the plasma was determined by liquid chromatography-tandem mass spectrometry, and the corresponding pharmacokinetic parameters were obtained according to a plasma concentration-time curve.

[5] = Homo sapiens, MV4-11, 72 h, class symbols
[6] = male, ICR, mouse, plasma, iv, 2 mg/kg
[7] = male, ICR, mouse, plasma, po, 10 mg/kg (0.5% CMC-Na suspension)

Molecule	pIC50 [1]	pIC50 [2, 5]	pIC50 ([2]; Homo sapiens, MV4-11, 72 h)	also measured
CC(C)Oc1cc(-n2nc3n(c2=O)CCC2(CC2)C3)c(F)cc1C(=O)Nc1c(F)cccc1Cl [Compound 40]	> 7.30	≥ 7.30	–	–
Cc1ccc(F)c(NC(=O)c2cc(F)c(-n3nc4n(c3=O)CCC3(CC3)C4)cc2O[C@@H](C)C(F)(F)F)c1 [Compound 19]	> 7.30	≥ 7.30	–	–
C[C@H](Oc1cc(-n2nc3n(c2=O)CCC2(CC2)C3)c(F)cc1C(=O)Nc1c(Cl)ccc(F)c1F)C(F)(F)F [Compound 31]	> 7.30	≥ 7.30	–	–
Cc1ccccc1NC(=O)c1cc(F)c(-n2nc3n(c2=O)CCC2(CC2)C3)cc1O[C@@H](C)C(F)(F)F [Compound 5]	> 7.30	≥ 7.30	–	–
CCC[C@H](C)Oc1nc(-n2nc3n(c2=O)CCC2(CC2)C3)c(F)cc1C(=O)Nc1c(F)cccc1Cl [Compound 56]	> 7.30	–	8.71	–
C[C@H](Oc1cc(-n2nc3n(c2=O)CCC2(CC2)C3)c(F)cc1C(=O)Nc1c(F)cccc1C(F)(F)F)C(F)(F)F [Compound 14]	> 7.30	≥ 7.30	–	–
C[C@H](Oc1nc(-n2nc3n(c2=O)CCC2(CC2)C3)c(F)cc1C(=O)Nc1c(F)cccc1Cl)C(F)(F)F [Compound 54, (S)—N-(2-chloro-6-fluorophenyl)-5-fluoro-4-(3′-oxo-5′,6′-dihydro-3′H-spiro[cyclopropane-1,7-[1,2,4]triazolo[4,3-α]pyridin]-2′(8′H)-yl)-2-((1,1,1-trifluoropropan-2-yl)oxy)benzamide]	> 7.30	–	9.29	pIC50 ([3]; Homo sapiens): 7.61
C[C@H](Oc1cc(-n2nc3n(c2=O)CC2(CC2)C3)c(F)cc1C(=O)Nc1c(F)cccc1Cl)C1CCCCC1 [Compound 49]	> 7.30	≥ 7.30	–	–
Cc1ccc(Cl)c(NC(=O)c2cc(F)c(-n3nc4n(c3=O)CCC3(CC3)C4)cc2O[C@@H](C)C(F)(F)F)c1C [Compound 32]	> 7.30	≥ 7.30	–	–
C[C@H](Oc1cc(-n2nc3n(c2=O)CCC2(CC2)C3)c(F)cc1C(=O)Nc1c(F)cccc1Cl)C(F)(F)F [Compound 1, (S)—N-(2-chloro-6-fluorophenyl)-5-fluoro-4-(3′-oxo-5′,6′-dihydro-3′H-spiro[cyclopropane-1,7-[1,2,4]triazolo[4,3-α]pyridin]-2′(8′H)-yl)-2-((1,1,1-trifluoropropan-2-yl)oxy)benzamide]	> 7.30	–	8.90	pIC50 ([3]; Homo sapiens): 7.56; AUC(0-t) [4, 6]: 2530 ng·h/mL; clearance [4, 6]: 13.2 mL/min/kg; half-life [4, 6]: 1.79 h; Vd ([4]; male, ICR, mouse, plasma, iv, 2 mg/kg, read-out: Vss): 1.66 L/kg; AUC(0-t) [4, 7]: 7780 ng·h/mL; Cmax [4, 7]: 2240 ng/mL; Tmax [4, 7]: 0.25 h; half-life [4, 7]: 2.07 h; oral bioavailability (in words) ([4]; po): good oral bioavailability; F ([4]; po 10 mg/kg vs iv 2 mg/kg): 61.7%
Cc1cc(F)ccc1NC(=O)c1cc(F)c(-n2nc3n(c2=O)CCC2(CC2)C3)cc1O[C@@H](C)C(F)(F)F [Compound 22]	> 7.30	≥ 7.30	–	–
Cc1n[nH]c(C)c1NC(=O)c1cc(F)c(-n2nc3n(c2=O)CCC2(CC2)C3)cc1O[C@@H](C)C(F)(F)F [Compound 38]	> 7.30	–	7.67	–
C[C@H](Oc1cc(-n2nc3n(c2=O)CCCC2(CC2)C3)c(F)cc1C(=O)Nc1c(F)cccc1Cl)C(F)(F)F [Compound 51]	> 7.30	–	8.26	pIC50 ([3]; Homo sapiens): 7.32
Cc1ccnc(Cl)c1NC(=O)c1cc(F)c(-n2nc3n(c2=O)CCC2(CC2)C3)cc1O[C@@H](C)C(F)(F)F [Compound 36]	> 7.30	–	7.90	–
Cc1cccc(NC(=O)c2cc(F)c(-n3nc4n(c3=O)CCC3(CC3)C4)cc2O[C@@H](C)C(F)(F)F)c1 [Compound 7]	> 7.30	≥ 7.30	–	–
CC(C)[C@H](C)Oc1cc(-n2nc3n(c2=O)CCC2(CC2)C3)c(F)cc1C(=O)Nc1c(F)cccc1Cl [Compound 43]	> 7.30	≥ 7.30	–	–
C[C@H](Oc1cc(-n2nc3n(c2=O)CCC2(CC2)C3)c(F)cc1C(=O)Nc1c(F)cccc1Cl)C1CC1 [Compound 44]	> 7.30	≥ 7.30	–	–
Cc1c(F)cccc1NC(=O)c1cc(F)c(-n2nc3n(c2=O)CCC2(CC2)C3)cc1O[C@@H](C)C(F)(F)F [Compound 23]	> 7.30	≥ 7.30	–	–
C[C@H](Oc1cc(-n2nc3n(c2=O)CCC2(CC2)C3)c(F)cc1C(=O)Nc1cccc(Cl)c1)C(F)(F)F [Compound 8]	> 7.30	≥ 7.30	–	–

Molecule	pIC50 [1]	pIC50 [2, 5]	pIC50 ([2]; Homo sapiens, MV4-11, 72 h)	also measured
C[C@H](Oc1cc(-n2nc3n(c2=O)CCC2(CC2)C3)c(F)cc1C(=O)Nc1c(Cl)cc(F)cc1Cl)C(F)(F)F [Compound 28]	> 7.30	≥ 7.30	–	–
Cc1cccc(Cl)c1NC(=O)c1cc(F)c(-n2nc3n(c2=O)CCC2(CC2)C3)cc1O[C@@H](C)C(F)(F)F [Compound 12]	> 7.30	–	8.84	–
Cc1c(Cl)cccc1NC(=O)c1cc(F)c(-n2nc3n(c2=O)CCC2(CC2)C3)cc1O[C@@H](C)C(F)(F)F [Compound 24]	> 7.30	≥ 7.30	–	–
CCC[C@H](C)Oc1cc(-n2nc3n(c2=O)CCC2(CC2)C3)c(F)cc1C(=O)Nc1c(F)cccc1Cl [Compound 42]	> 7.30	≥ 7.30	–	–
CCC[C@H](C)Oc1cc(-n2nc3n(c2=O)CC2(CC2)C3)c(F)cc1C(=O)Nc1c(F)cccc1Cl [Compound 50]	> 7.30	≥ 7.30	–	–
CCC[C@H](C)Oc1cc(-n2nc3n(c2=O)CCCC2(CC2)C3)c(F)cc1C(=O)Nc1c(F)cccc1Cl [Compound 53]	> 7.30	–	8.16	–
Cc1cnccc1NC(=O)c1cc(F)c(-n2nc3n(c2=O)CCC2(CC2)C3)cc1O[C@@H](C)C(F)(F)F [Compound 34]	> 7.30	–	7.99	–
C[C@H](Oc1cc(-n2nc3n(c2=O)CCC2(CC2)C3)c(F)cc1C(=O)Nc1c(F)cc(F)cc1Cl)C(F)(F)F [Compound 27]	> 7.30	≥ 7.30	–	–
C[C@H](Oc1cc(-n2nc3n(c2=O)CCC2(CC2)C3)c(F)cc1C(=O)Nc1ccc(N)cc1C(F)(F)F)C(F)(F)F [Compound 26]	> 7.30	≥ 7.30	–	–
BAY-2402234 [reference compound]	–	–	–	pIC50 [3]: 7.45; pIC50 [2]: 8.42
Cc1cc(N)ccc1NC(=O)c1cc(F)c(-n2nc3n(c2=O)CCC2(CC2)C3)cc1O[C@@H](C)C(F)(F)F [Compound 25]	> 7.30	≥ 7.30	–	–
C[C@H](Oc1cc(-n2nc3n(c2=O)CCCC2(CC2)C3)c(F)cc1C(=O)Nc1c(F)cccc1Cl)C1CCCCC1 [Compound 52]	> 7.30	≥ 7.30	–	–
C[C@H](Oc1cc(-n2nc3n(c2=O)CCC2(CC2)C3)c(F)cc1C(=O)Nc1ccccc1C(F)(F)F)C(F)(F)F [Compound 3]	> 7.30	–	8.26	–
C[C@H](Oc1cc(-n2nc3n(c2=O)CCC2(CC2)C3)c(F)cc1C(=O)Nc1ccccc1C(F)F)C(F)(F)F [Compound 4]	> 7.30	≥ 7.30	–	–
CCc1ccccc1NC(=O)c1cc(F)c(-n2nc3n(c2=O)CCC2(CC2)C3)cc1O[C@@H](C)C(F)(F)F [Compound 6]	> 7.30	≥ 7.30	–	–
Cc1cc(F)cc(Cl)c1NC(=O)c1cc(F)c(-n2nc3n(c2=O)CCC2(CC2)C3)cc1O[C@@H](C)C(F)(F)F [Compound 29]	> 7.30	≥ 7.30	–	–
COc1ncc(C)c(NC(=O)c2cc(F)c(-n3nc4n(c3=O)CCC3(CC3)C4)nc2O[C@@H](C)C(F)(F)F)c1Cl [Compound 57]	> 7.30	–	9.49	–
Cc1n[nH]c(Cl)c1NC(=O)c1cc(F)c(-n2nc3n(c2=O)CCC2(CC2)C3)cc1O[C@@H](C)C(F)(F)F [Compound 39]	> 7.30	–	7.18	–
